Several values for one entry are separate records, joined by “and”; a condition that tells them apart may be missing. Equal entries are not always repeated. After the bases stand the sugars from the 5' end (letter, count) and the backbone: PS all phosphorothioate, else s phosphorothioate and o phosphodiester by linkage. Methylation of C is not given here. e = 2'-O-(2-methoxyethyl) (MOE); d = 2'-deoxy (DNA)
Target: DGAT2
Settings: ASO

| Sequence | target mRNA inhibition (HepG2, 2.5 µM) | target mRNA inhibition (HepG2, 10 µM) | target mRNA inhibition (HepG2, 0.12 µM) | target mRNA inhibition (HepG2, 20 µM) |
| --- | --- | --- | --- | --- |
| CACTTGCTTGAGGTCAGGGT (sugars e5 d10 e5, PS) | 81% and 75% | 81% and 74% | – | – |
| ACACCAGGATCTCAGTCACT (sugars e5 d10 e5, PS) | – | – | 42% | – |
| TTGCTCAGTTCTTCCAACCA (sugars e5 d10 e5, PS) | 81% and 72% | 93% and 94% | – | – |
| GGCTGAGTCTGTGCTGCATC (sugars e5 d10 e5, PS) | 85% and 65% | 81% | – | – |
| TCTTGTGCTTGTCGAAGAGC (sugars e5 d10 e5, PS) | – | – | 62% | – |
| GGTTCCGCAGGGTGACTGCA (sugars e5 d10 e5, PS) | 48% | 68% | – | – |
| CCTCAGGAAGGCACAGAAAA (sugars e5 d10 e5, PS) | – | – | 40% | – |
| CCTCTCCTGTTTGATGGGTA (sugars e5 d10 e5, PS) | 78% and 85% and 87% | 91% and 78% and 88% | – | – |
| GGCTCCGGTCAGCCTCGGCC (sugars e5 d10 e5, PS) | – | – | 0% | – |
| CCTTAGCTTTAATCCAGGAT (sugars e5 d10 e5, PS) | 70% | 89% | – | – |
| GATTCAAATCTGTGTGACCT (sugars e5 d10 e5, PS) | 64% and 83% | 89% and 92% | – | – |
| AGGTAAGGCCGTATGCCTGG (sugars e5 d10 e5, PS) | – | – | 72% | – |
| ATCCAGAGACTGAATTCTAG (sugars e5 d10 e5, PS) | 61% | 88% | – | – |
| CTTGCTCACTTCTGTGGCCT (sugars e5 d10 e5, PS) | – | – | 48% | – |
| TTAAGGGTTCATGGATCCCC (sugars e5 d10 e5, PS) | 63% and 75% and 79% | 91% and 93% | – | – |
| AAGCCTCGGTGTCCTCT (sugars e3 d10 e4, PS) | 56% and 70% | 87% and 90% | – | – |
| ACCATTTTCACAAGGAGAAG (sugars e5 d10 e5, PS) | – | – | 30% | – |
| GAGCTCAGAGACTCAGCCGC (sugars e2 d13 e5, PS) | 27% | 42% | 89% | 61% |
| CAGGCAGCCTGAAGGACACT (sugars e5 d10 e5, PS) | – | – | 49% | – |
| CAAAGATATAGTTCCTGGTG (sugars e5 d10 e5, PS) | – | – | 61% | – |
| GTGGTTGCAATGTTGCC (sugars e3 d10 e4, PS) | 67% and 80% | 88% and 94% | – | – |
| GTGCTTTCTAAGTACCCTTT (sugars e5 d10 e5, PS) | 81% and 78% | 92% and 89% | – | – |

| Sequence | target mRNA inhibition (HepG2, 2.5 µM) | target mRNA inhibition (HepG2, 10 µM) | target mRNA inhibition (HepG2, 0.12 µM) | target mRNA inhibition (HepG2, 20 µM) |
| --- | --- | --- | --- | --- |
| GGGCAAAAAGTGAATCATCT (sugars e5 d10 e5, PS) | 39% | 72% | – | – |
| GCACCATTTTCACAAGGAGA (sugars e5 d10 e5, PS) | 79% and 72% | 85% and 81% | – | – |
| ATAGCATTGCCACTCCCATT (sugars e3 d14 e3, PS) | – | – | 71% | – |
| ATCACTTGCTTGAGGTCAGG (sugars e5 d10 e5, PS) | 70% | 90% | – | – |
| CATACTAGACTATGCAGCCT (sugars e5 d10 e5, PS) | 89% and 69% | 97% and 93% | – | – |
| GAAAACTTAGGCATGCTTCC (sugars e5 d10 e5, PS) | 59% | 92% | – | – |
| GCACTGACATGGTAAGTCCT (sugars e5 d10 e5, PS) | 87% and 79% | 93% and 89% | – | – |
| AGAGGTTCAACATCCAATTT (sugars e5 d10 e5, PS) | 0% | 86% | – | – |
| AACCCACAGACACCCATGAC (sugars e5 d10 e5, PS) | – | – | 4% | – |
| AGGCACCTGTTACTACATGT (sugars e5 d10 e5, PS) | 78% | 93% and 91% | – | – |
| CCACTGTGACCTCCTGCCAC (sugars e5 d10 e5, PS) | – | – | 30% | – |
| GTCTGGGAACAGCAGCATCA (sugars e5 d10 e5, PS) | 72% | 89% | – | – |
| GACAGCTGTGATGACTTCCC (sugars e5 d10 e5, PS) | 73% | 87% | – | – |
| GCTTTAATCCAGGATTGTCA (sugars e5 d10 e5, PS) | 73% and 76% and 82% | 91% and 88% and 93% | – | – |
| CACTGGAGCACTGAGATGAC (sugars e3 d14 e3, PS) | – | – | 55% | – |
| AAGGGTATTCTGCTCATAAA (sugars e5 d10 e5, PS) | 48% | 88% | – | – |
| AAAGCAAATAGTCTATGGTG (sugars e5 d10 e5, PS) | – | – | 46% | – |
| CCATGTCAGAGAGGCTC (sugars e3 d10 e4, PS) | 81% and 76% | – | – | – |
| CACTGGAGCACTGAGATGAC (sugars e2 d13 e5, PS) | – | – | 61% | – |
| CTTCACCAGCTGGATGGGAA (sugars e5 d10 e5, PS) | – | – | 36% | – |
| ATCACAGAATTATCAGCAGT (sugars e5 d10 e5, PS) | 59% | 92% | – | – |

Reference: the OligoGym collection
